Experiments:
[1] = release of mefenamic acid from intravaginal devices into water; format: physicochemical; conditions: 100 ml water, stirred gently, six devices
From the text: The final intra-vaginal devices, namely coupons fixed directly to tampons or coupons fixed to tampons via the sleeve were then compared for their ability to release an active pharmaceutical, in this case mefenamic acid, when placed in an aqueous environment. This enabled functional ‘equivalence’ of the devices to be confirmed. Intravaginal devices constructed by the direct application of coupons to tampons were compared to intravaginal devices constructed using the mesh sleeve. Devices were placed in beakers containing 100 ml water and stirred gently for varying periods of time. The fluid phase was removed brought to a […] with sodium hydroxide and the concentration of mefenamic determined by spectrophotometry.

[2] = clinical study: circulating plasma concentrations of mefenamic acid after intravaginal devices; format: in vivo; conditions: human volunteers, intravaginal tampon with directly attached coupons
Procedure: The purpose of the device described here is to administer mefenamic acid via the intravaginal route. In one clinical study, intravaginal devices, using the direct process of attachment of coupons to tampons were prepared to cGMP (Good Manufacturing Procedure); devices were prepared containing 20, 40 or 80 mg per tampon.
These were administered to human volunteers in a study conforming to Good Clinical Procedure and circulating plasma concentrations of mefenamic acid were determined after drawing blood samples.

[3] = 20 mg mefenamic acid per tampon
[4] = 40 mg mefenamic acid per tampon
[5] = 80 mg mefenamic acid per tampon

mefenamic acid recovered in the aqueous phase (mean) ([1]; devices with coupons attached via the mesh sleeve, 80 mg per sleeve): 73.7 mg | mefenamic acid recovered in the aqueous phase (mean) ([1]; devices with coupons directly attached to tampons, 80 mg per tampon): 72.8 mg | Accumulated dose (0-7) [2, 3]: 44.7 | Max. plasma conc. [2, 3]: 4.23 ng/mL | Accumulated dose (0-7) [2, 4]: 197 | Max. plasma conc. [2, 4]: 14.9 ng/mL | Accumulated dose (0-7) [2, 5]: 257 | Max. plasma conc. [2, 5]: 19.5 ng/mL
SMILES: Cc1cccc(Nc2ccccc2C(=O)O)c1C [mefenamic acid, 2-[2,3-Dimethylphenylamino] benzoid acid]
